Measurements as given in US20070197452A1, “Treatment of amyloid-related diseases” (priority 2006, published 2007).
“Also recorded” adds a separate entry of the source.

What was measured:
[1] = tested on: TgCRND8 mice; assay: Open field test for motor activity; format: in vivo, mouse; details: treated TgCRND8 mice vs untreated TgCRND8 and non-Tg littermates
Protocol: (§1) Behavioural tests: Morris Water Maze testing was performed as previously described. After non-spatial pre-training, mice underwent place discrimination training for 5 days with 4-trials per day, followed by a cued visible platform to rule out general motivational, learning deficits and motor problems, and a probe trial to evaluate memory. […] Open field test for motor activity was preformed as described previously. Duration of walking, pausing and grooming were analyzed as indices of spontaneous locomotor activity. Sensorimotor function was examined with an Economex™ accelerating rotarod (Columbus Instruments, Columbus, Ohio), as described elsewhere. The rod was set to accelerate at a rate of 0.2 r.p.m./s, from an initial, constant speed of 5 r.p.m. Latency to fall was recorded in four daily trials, conducted at 30 min intervals. All mice were trained for seven days before testing. The test day performance score for each animal was obtained by summing its latency to fall over the four trials
Behavioral tests. Morris water maze testing was carried out as previously described. After nonspatial pretraining, mice underwent place discrimination training for 5 d with four trials per day, followed by a cued visible platform trial and a probe trial. An open-field test for motor activity was carried out as described previously. Sensorimotor function was assessed with an Economex accelerating rotarod (Columbus Instruments) as previously described.
Behavioural tests. Morris Water Maze testing was performed as previously described. After non-spatial pre-training, mice underwent place discrimination training for 5 days with 4-trials per day, followed by a cued visible platform to rule out general motivational, learning deficits and motor problems, and a probe trial to evaluate memory. The probe trial was conducted at 72 h after the last testing, and used an annulus-crossing index to assess spatial recall. […]
(§2) Duration of walking, pausing and grooming were analyzed as indices of spontaneous locomotor activity. […] Latency to fall was recorded in four daily trials, conducted at 30 min intervals. […]

[2] = tested on: TgCRND8 mice; assay: Accelerating rotarod, sensorimotor function; format: in vivo, mouse; details: treated vs untreated TgCRND8 mice and non-Tg littermates
Protocol: as §1
Behavioral tests. Morris water maze testing was carried out as previously described. […] Sensorimotor function was assessed with an Economex accelerating rotarod (Columbus Instruments) as previously described.
as §2

[3] = tested on: APP; assay: Analysis of APP in brain (western blot); format: in vivo, mouse; details: treated TgCRND8 mice
Protocol: Analysis of APP in brain. Mouse hemi-brain samples were homogenized and spun at 109,000×g, in 20 mM Tris pH7.4,0.25M sucrose, 1 mM EDTA and 1 mM EGTA, and a protease inhibitor cocktail, mixed with 0.4% DEA (diethylamine)/100 mM NaCl. The supernatants were analysed for APPs levels by Western blotting using mAb 22C11, while the pellets were analysed for APP holoprotein with mAb C1/6.1 as previously described.
(§3) Analysis of APP processing. Mouse hemi-brain samples were homogenized and spun at 109,000 g, in 20 mM Tris pH 7.4, 0.25 M sucrose, 1 mM EDTA and 1 mM EGTA, and a protease inhibitor cocktail, mixed with a mixture of 0.4% DEA (diethylamine) and 100 mMNaCl. The supernatants were analyzed for APP levels by western blotting using the monoclonal antibody 22C11, and the pellets were analyzed for APP holoprotein with the monoclonal antibody C1/6.1 as previously described. […] The target protein was probed with polyclonal APP C-terminal fragment-specific antibody (Sigma) by western blotting.

[4] = tested on: γ-secretase; assay: In vitro γ-secretase assay in HEK293 cells transfected with human APPswe; format: cell-based
Protocol: FIG. 9. In vitro γ-secretase assays in HEK293 cells transfected with human APPswe. After swAPP stable HEK293 cells were untreated or treated with AZD-103 or 10 nM compound E, cell membranes were used for APP-FL and —CTF detection and for e-stubs generation in vitro assays at 37° C. for 1 hr. Lanes 1&[…] AZD-103 treatment; lanes 3&4 […] AZD-103 treatment; lanes 5&6 compound E treated and lanes 7&8 untreated HEK293 APPswe cells.
as §3

[5] = biological target: T1, β-secretase (Homo sapiens, UniProt P56817); assay: In vitro β-secretase activity assay; format: cell-based
T1 construct: endogenous in cells

[6] = wild-type mice
Protocol: Mice. […] A cohort of animals (n=10 mice per treatment arm) entered the study at five months of age, and outcomes were then analyzed after one month of treatment. The body weight, coat characteristics and in cage behaviour were monitored. Mannitol was used as a negative control for potential alterations in caloric intake. All experiments were performed according to the Canadian Council on Animal Care guidelines.
Mice. […] Mannitol was used as a negative control for potential alterations in caloric intake.

[7] = tested on: TgCRND8 mice; assay: Morris water maze spatial reference memory test; format: in vivo, mouse; details: separate cohort; 28 days of treatment from 5 months of age; data not shown
[8] = biological target: T2, Aβ42 (Homo sapiens, UniProt P05067); assay: Plasma Aβ42 level; format: in vivo, mouse; details: TgCRND8 mice; 28 days of therapy at five months of age; untreated 1144±76 pg/ml
T2 construct: analyzed for Aβ40 and Aβ42 using commercially available kits; from tissue; host or cells: hemi-brain homogenates and plasma of TgCRND8 transgenic mice
Protocol: Plasma and Cerebral Aβ Content. Hemi-brain samples were homogenized in a buffered sucrose solution, followed by either 0.4% diethylamine/100 mM NaCl for soluble Aβ levels or cold formic acid for the isolation of total Aβ. After neutralization, the samples were diluted and analyzed for Aβ40 and Aβ42 using commercially available kits (BIOSOURCE International). Each hemisphere was analyzed in triplicate and the mean values±SEM reported. Western blot analyses were performed on all fractions using urea gels for Aβ species analyses. Aβ was detected using 6E10 (BIOSOURCE International) and Enhanced Chemiluminenscence (Amersham).
Plasma and cerebral Aβ content. Hemi-brain samples were homogenized in a buffered sucrose solution, followed by either a mixture of 0.4% diethylamine and 100 mM NaCl for soluble Aβ levels or cold formic acid for the isolation of total Aβ. After neutralization, samples were diluted and analyzed for Aβ40 and Aβ42 using commercially available kits (Biosource International). Each hemisphere was analyzed in triplicate and the mean±s.e.m. was reported. Western blot analyses were carried out on all fractions using urea gels for Aβ species analyses. Aβ was detected using 6E10 (Biosource International).

T2 sequence (P05067 672-713 limits assumed): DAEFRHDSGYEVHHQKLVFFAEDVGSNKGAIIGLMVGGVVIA
T1 sequence (P56817 46-501): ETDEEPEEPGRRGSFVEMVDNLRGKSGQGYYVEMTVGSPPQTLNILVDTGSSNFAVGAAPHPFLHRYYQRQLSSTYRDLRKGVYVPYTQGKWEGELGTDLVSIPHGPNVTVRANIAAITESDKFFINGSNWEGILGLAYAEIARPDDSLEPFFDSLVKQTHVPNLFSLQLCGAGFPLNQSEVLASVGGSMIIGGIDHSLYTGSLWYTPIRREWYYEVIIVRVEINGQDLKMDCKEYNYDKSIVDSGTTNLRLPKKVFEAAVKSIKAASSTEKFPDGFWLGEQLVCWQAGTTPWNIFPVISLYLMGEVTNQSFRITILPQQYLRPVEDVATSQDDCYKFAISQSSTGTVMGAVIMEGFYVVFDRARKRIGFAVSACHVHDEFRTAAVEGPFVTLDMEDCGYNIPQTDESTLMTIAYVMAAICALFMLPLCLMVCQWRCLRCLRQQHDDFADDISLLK

Compound | open field: grooming, pausing, walking / activity levels [1] | open field: grooming, pausing, walking / activity levels ([1]; listed as AZD-103) | open field: grooming, pausing, walking / activity levels ([1]; listed as Scyllo-cyclohexanehexol) | rotarod sensorimotor function [2] | levels of APP holoprotein, APP glycosylation, APPs-α, APPs-β in brain homogenates [3] | γ-secretase enzyme activity [4] | β-secretase enzyme activity [5] | survival, weight, fur condition, cage behavior [6] | probe trial, % time in target quadrant, compared with non-Tg littermates [7] | Plasma Aβ42 levels [8] [pg/mL]
OC1C(O)C(O)C(O)C(O)C1O (stereo not shown) [scyllo-cyclohexanehexol, 1,3,5/2,4,6-(scyllo-) cyclohexanehexol] | indistinguishable; also recorded: does not affect activity levels | does not affect activity levels | no effect on grooming or activity | no difference; also recorded: indistinguishable | no effect | no effect | no effect | no effect on survival, weight, fur condition or cage behavior | not statistically different from non-Tg littermates | 
OC1C(O)C(O)C(O)C(O)C1O (stereo not drawn) [epi-cyclohexanehexol, 1,2,3,4,5/6-(epi-) cyclohexanehexol, reference compound] |  |  |  |  |  |  |  |  |  | 1079 ± 79
